Experimental data as given in ChEMBL document CHEMBL1144580, “Screening of alpha-helical peptide ligands controlling a calcineurin-phosphatase activity” (Bioorg Med Chem Lett, 2007).
Activity calls are given as the source filed them. The calls are words filed in the database; no cut-off is given here.

What was measured:
Homo sapiens [1] = species: Homo sapiens; assay: Inhibition of calcineurin phosphatase activity in absence of calmodulin at 1 uM
Homo sapiens [2] = species: Homo sapiens; assay: Inhibition of calcineurin phosphatase activity in presence of calmodulin at 1 uM

Row | Compound | Activity (Homo sapiens [1]) | Activity (Homo sapiens [2])
1 | CC(C)C[C@H](NC(=O)[C@H](CCCCN)NC(=O)[C@H](CC(C)C)NC(=O)[C@H](CC(C)C)NC(=O)[C@H](CCCCN)NC(=O)[C@H](Cc1ccc(O)cc1)NC(=O)[C@H](Cc1ccccc1)NC(=O)[C@H](CC(C)C)NC(=O)[C@H](CCCNC(=N)N)NC(=O)[C@H](C)NC(=O)[C@H](CC(C)C)NC(=O)[C@H](CCCCN)NC(=O)[C@H](CCCCN)NC(=O)[C@@H](N)CC(C)C)C(=O)O | inactive | Active
2 | H-LKKLIRLAYKLLKL-OH | inactive | Dose-dependent effect
3 | H-LKKLIRLFTKLLKL-OH | inactive | Dose-dependent effect
4 | H-LKKLLKLLKKLLKL-OH | inactive | Dose-dependent effect
